One series concerns the target T1, VchCAα (Vibrio cholerae serotype O1, UniProt Q9KMP6).
T1 construct: made in house; host or cells: E. coli BL21 DE3
In words: stopped flow CO2 hydrase assay, VchCAα. The class given is biochemical. Particulars: for Ki: stopped flow CO2 hydrase assay, mean from three different assays.

A further series has as its target VchCAβ (Vibrio cholerae, UniProt A0A086SLX8). Kind of series: stopped flow CO2 hydrase assay, VchCAβ. The class given is biochemical. Particulars: for inhibitory activity toward VchCAβ (in words): qualitative statement.
The target in another series is VchCAγ (Vibrio cholerae, UniProt Q9KVT1). In words: stopped flow CO2 hydrase assay, VchCAγ. The class given is biochemical.
Another series deals with pathogen. Also on record: method as in PMID 26010545. Particulars: cited from earlier work.

Like-named read-outs stand apart in the source and are kept apart here. A value given as a limit tells only on which side of the number the result lay.

T1 sequence (Q9KMP6 21-239): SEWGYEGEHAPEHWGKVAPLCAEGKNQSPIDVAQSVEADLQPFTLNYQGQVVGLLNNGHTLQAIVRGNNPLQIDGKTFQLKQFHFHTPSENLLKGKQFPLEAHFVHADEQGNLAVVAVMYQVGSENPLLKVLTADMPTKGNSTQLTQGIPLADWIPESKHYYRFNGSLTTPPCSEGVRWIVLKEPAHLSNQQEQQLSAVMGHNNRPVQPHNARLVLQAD
Chain of VchCAγ (Q9KVT1 entry or part of it): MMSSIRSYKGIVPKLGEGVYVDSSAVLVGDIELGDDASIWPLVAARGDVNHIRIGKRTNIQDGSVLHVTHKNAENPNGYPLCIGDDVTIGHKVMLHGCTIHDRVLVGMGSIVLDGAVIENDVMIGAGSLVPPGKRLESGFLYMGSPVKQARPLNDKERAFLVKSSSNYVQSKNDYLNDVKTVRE
Chain of VchCAβ (A0A086SLX8 entry or part of it): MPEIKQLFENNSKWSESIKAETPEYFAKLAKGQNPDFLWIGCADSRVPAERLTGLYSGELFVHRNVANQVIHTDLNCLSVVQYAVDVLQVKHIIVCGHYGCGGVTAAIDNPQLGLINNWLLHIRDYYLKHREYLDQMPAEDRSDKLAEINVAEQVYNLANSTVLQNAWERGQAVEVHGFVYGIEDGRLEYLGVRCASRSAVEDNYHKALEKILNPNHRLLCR

A word on the Ki: it is the equilibrium dissociation constant of an inhibitor or competing ligand from its target. By melting point is commonly meant the temperature, or range, at which the solid turns liquid. In turn, `NS(=O)(=O)c1ccc(C(=O)N2CCC(O)(c3ccc(Cl)cc3)CC2)cc1` [7c, 4-[4-(4-Chlorophenyl)-4-hydroxypiperidine-1-carbonyl]benzenesulfonamide] displayed a melting point of 215 to 217 °C. At VchCAα (Ki VchCAα), this compound showed a Ki of 0.0451 µM. For the same compound, the Ki on VchCAβ came to 3.94 µM. The compound also had a Ki at VchCAγ of more than 10 µM.
Consider `CCOc1ccc2nc(S(N)(=O)=O)sc2c1` [EZA, ethoxzolamide], for which, in the series with pathogen, the growth of pathogen result is reported as “reduce the growth of pathogen” and the virulence gene expression entry is given as “decrease the virulence gene expression”.
On to `NS(=O)(=O)c1ccc(C(=O)N2CCCCC2)cc1` [5a, 4-(Piperidine-1-carbonyl)benzenesulfonamide], for which the values for the Ki at VchCAα (Ki VchCAα), on VchCAβ and at VchCAγ were 0.843 µM, more than 10 µM and more than 10 µM, respectively.
For the compound `CC1CCCCN1C(=O)c1ccc(S(N)(=O)=O)cc1` (stereo not shown) [5b, 4-(2-Methylpiperidine-1-carbonyl)benzenesulfonamide], the Ki on VchCAα (Ki VchCAα) is 0.296 µM; at VchCAβ, more than 10 µM; on VchCAγ, more than 10 µM.
`NS(=O)(=O)c1ccc(C(=O)N2CCC(c3ccccc3)CC2)cc1` [7a, 4-(4-Phenylpiperidine-1-carbonyl)benzenesulfonamide] displayed a melting point of 222 to 223 °C. For the same compound, on VchCAα (Ki VchCAα), the Ki was determined as 0.0433 µM. This compound came in with a Ki at VchCAβ of 3.31 µM. Further, the Ki at VchCAγ is more than 10 µM.
Taken in the same sequence, the figures for `N#CC1(c2ccccc2)CCN(C(=O)c2ccc(S(N)(=O)=O)cc2)CC1` [7e, 4-(4-Cyano-4-phenylpiperidine-1-carbonyl)benzenesulfonamide] were 285 to 286 °C, 0.0899 µM, 0.806 µM and more than 10 µM.
Compound `NS(=O)(=O)c1ccc(C(=O)N2CCC(O)(c3ccccc3)CC2)cc1` [7b, 4-(4-Hydroxy-4-phenylpiperidine-1-carbonyl)benzenesulfonamide] gave a melting point of 135 to 137 °C. On VchCAα (Ki VchCAα), this compound showed an inhibition constant Ki of 0.194 µM. For the same compound, on VchCAβ, the Ki turned out to be 3.71 µM. The Ki on VchCAγ was more than 10 µM.
For the compound `NS(=O)(=O)c1ccc(C(=O)N2CCN(c3ccccc3)CC2)cc1` [8d, 4-(4-Phenylpiperazine-1-carbonyl)benzenesulfonamide], the Ki at VchCAα (Ki VchCAα) is 0.047 µM; on VchCAβ, 4.16 µM; at VchCAγ, more than 10 µM. Moreover, the “inhibitory activity toward VchCAβ (in words)” value against VchCAβ is “moderate inhibitors”.
In turn, `NS(=O)(=O)c1ccc(C(=O)N2CCN(Cc3ccc(F)cc3)CC2)cc1` [8b, 4-[4-[(4-Fluorophenyl)methyl]piperazine-1-carbonyl]benzenesulfonamide] displayed a melting point of 206 to 207 °C. On VchCAα (Ki VchCAα), affinity was put at a Ki of 0.0957 µM. On VchCAβ, the affinity corresponds to a Ki of 5.01 µM and the “inhibitory activity toward VchCAβ (in words)” value was “moderate inhibitors”. In addition, the Ki at VchCAγ was more than 10 µM.
Take `NS(=O)(=O)c1ccc(C(=O)N2CCCCCC2)cc1` [6a, 4-(Azepane-1-carbonyl)benzenesulfonamide]: the inhibition constant (Ki) was 0.275 µM on VchCAα (Ki VchCAα), more than 10 µM at VchCAβ and more than 10 µM at VchCAγ.
Regarding `CC(=O)C1(c2ccccc2)CCN(C(=O)c2ccc(S(N)(=O)=O)cc2)CC1` [7f, 4-(4-Acetyl-4-phenyl-piperidine-1-carbonyl)benzenesulfonamide], the inhibition constant (Ki) at VchCAα (read-out: Ki VchCAα) was 0.0721 µM; on VchCAβ, 6.61 µM; at VchCAγ it was more than 10 µM.
Compound `CC1CCN(C(=O)c2ccc(S(N)(=O)=O)cc2)CC1` [5d, 4-(4-Methylpiperidine-1-carbonyl)benzenesulfonamide] gave a melting point of 212 to 213 °C. Also, the affinity at VchCAα (Ki VchCAα) corresponds to a Ki of 0.589 µM. In addition, at VchCAβ, the Ki is more than 10 µM. Besides, at VchCAγ, the Ki was more than 10 µM.
With `NS(=O)(=O)c1ccc(C(=O)N2CCN(C(c3ccccc3)c3ccccc3)CC2)cc1` [8c, 4-(4-Benzhydrylpiperazine-1-carbonyl)benzenesulfonamide], the inhibition constant Ki is 0.275 µM on VchCAα (Ki VchCAα), 4.82 µM at VchCAβ and more than 10 µM on VchCAγ. On VchCAβ, the “inhibitory activity toward VchCAβ (in words)” value is listed as “moderate inhibitors”.
With `NS(=O)(=O)c1ccc(C(=O)N2CCN(Cc3ccccc3)CC2)cc1` [8a, 4-(4-Benzylpiperazine-1-carbonyl)benzenesulfonamide], the melting point lay within 204 to 205 °C. Moreover, the “reduction of activity on VchCAα compared to parent compound 8d” value at VchCAα (8a versus 8d) is recorded as “ten-fold reduction of activity”. This compound displayed a Ki at VchCAα (Ki VchCAα) of 0.47 µM. Besides, at VchCAβ, the Ki is more than 10 µM and the “inhibitory activity toward VchCAβ (in words)” value is reported as “completely loss of inhibitory activity”. For the same compound, the Ki at VchCAγ is more than 10 µM.
In turn, `NS(=O)(=O)c1ccc(C(=O)N2CCC(O)(c3ccc(Br)cc3)CC2)cc1` [7d, 4-[4-(4-Bromophenyl)-4-hydroxy-piperidine-1-carbonyl]benzenesulfonamide] gave a melting point of 219 to 220 °C. The compound also came in with a Ki at VchCAα (Ki VchCAα) of 0.0588 µM. Besides, the Ki on VchCAβ was determined as 2.78 µM. The same compound returned a Ki at VchCAγ of more than 10 µM.
As for `CC1CCCN(C(=O)c2ccc(S(N)(=O)=O)cc2)C1` (stereo not shown) [5c, 4-(3-Methylpiperidine-1-carbonyl)benzenesulfonamide], the results for the inhibitory constant (Ki) on VchCAα (Ki VchCAα), at VchCAβ and on VchCAγ were 0.529 µM, more than 10 µM and more than 10 µM, respectively.
For `NS(=O)(=O)c1ccc(C(=O)N2CCC(Cc3ccccc3)CC2)cc1` [5e, 4-(4-Benzylpiperidine-1-carbonyl)benzenesulfonamide], the melting point lay within 156 to 157 °C. The same compound showed a Ki at VchCAα (Ki VchCAα) of 0.242 µM. Besides, affinity on VchCAβ was put at a Ki of 3.75 µM. The compound further gave a Ki on VchCAγ of more than 10 µM.
